{"source": "paper PMC12662929", "about": "“MR2938 relieves DSS-induced colitis in mice through inhibiting NF-κB signaling and improving epithelial barrier” (Marine Life Science & Technology, 2025)", "key": {"[1]": {"system": "DSS-induced colitis C57BL/6 mice", "assay": "Acute DSS-induced murine colitis model", "type": "in vivo, mouse", "settings": "for body weight: MR2938 50 or 100 mg/kg or 5-ASA 100 mg/kg, oral", "experimental": "After 1 week of acclimation, the C57BL/6 mice were randomly divided into the following groups (n = 6/group): control group, model group (DSS), DSS + 5-aminosalicylic acid (5-ASA, positive group, 100 mg/kg), DSS + MR2938 (100 mg/kg) and DSS + MR2938 (50 mg/kg). Colitis was induced by administration of 3% DSS drinking water for 5 consecutive days. Water consumption was monitored daily. At the same time, the mice in each group were given the corresponding agents: 5-ASA (100 mg/kg) and MR2938 (50 mg/kg or 100 mg/kg). The dosages of 5-ASA and MR2938 were adopted based on previous reports and our pilot trial. MR2938 or 5-ASA was dissolved in a mixture of saline and DMSO (95:5) to provide the desired concentrations.\nChanges in bodyweight were assessed daily over the 9-day experimental period. On the last day of the experiment, mice were sacrificed, and the entire colon was excised. Colon length was measured and gently washed with physiological saline. Then two pieces with 0.5 cm in length of the distal section were used for histological assessment and immunofluorescence staining. The remaining colon tissue samples were used to determine MPO activity and the concentrations of cytokines.\nDistal colons were harvested, fixed in 4% paraformaldehyde, and embedded in paraffin. Five-μm-thick tissue sections were stained with hematoxylin and eosin (HE) for light microscopic examination using a DP73 light microscope (Olympus, Tokyo, Japan). Colonic mucosa damage score was assessed as previously described. To count colonic goblet cells, fixed colonic tissues were also stained in Alcian blue for 10–15 min and dehydrated with 100% alcohol and xylene, followed by image acquisition on a microscope.\nThe serum was obtained from the collected blood samples through centrifugation at 3500 g for 15 min at 4 °C. A portion of frozen colon samples was homogenized with RIPA lysis buffer (Solarbio, Beijing, China) to extract total proteins. The homogenate was centrifuged at 12,000 × g at 4 °C for 15 min. The protein contents were quantified using a bicinchoninic acid (BCA) protein assay kit (Solarbio, Beijing, China) according to the manufacturer’s instructions. The concentrations of proinflammatory cytokines IL-1β, IL-6, and TNF-α in the serum and colon tissue were measured by ELISA (Jingmei Biotech, China) according to the manufacturers’ recommendations. MPO activity was measured using a myeloperoxidase assay kit (Jingmei Biotech, China).\n(§1) Total RNAs of colon tissues were extracted using tissue RNA kit (Omega Biotek, China) following the manufacturer’s protocol. cDNA was obtained from RNA samples using ReverTra Ace qPCR RT Master Mix with gDNA Remover (TOYOBO, Japan). Quantitative real-time PCR was performed by Applied Biosystems® QuantStudio Q5 instrument (Thermo, USA) with SYBR qPCR Master Mix (Vazyme, China). The relative gene expression was measured and normalized to β-actin expression using 2^−ΔΔCt method.\n(§2) For immunofluorescence staining, the frozen colon slides or cells were fixed in 4% paraformaldehyde, permeabilized with 0.1% Triton X-100, blocked non-specific proteins in 5% BSA/PBS for 1 h, and incubated overnight at 4 °C with Occludin, ZO-1 or p65 primary antibodies. The slides were then washed with phosphate buffer (PBS) and incubated with Dylight 488 labeling secondary antibody for 1 h at room temperature. Finally, the colon slides were stained with DAPI for 10 min, and then imaged and captured using ECHO microscope."}, "[2]": {"system": "NF-κB signaling in Raw264.7 cells", "assay": "LPS-induced inflammation / NF-κB signaling in Raw264.7 macrophages", "type": "cell-based", "experimental": "Raw264.7 cells and Caco-2 cells were obtained from the Cell Bank of the Chinese Academy of Sciences (Shanghai, China) and cultured in high-glucose DMEM medium supplemented with 10% fetal bovine serum (FBS) at 37 ℃ in a 5% CO2 atmosphere. Raw264.7 cells were seeded and incubated in six-well plates (8 × 10^5 cells/well) overnight, and then treated with different concentrations of MR2938 for 2 h. Then Raw264.7 cells were activated by lipopolysaccharide (LPS, 100 ng/mL, Sigma-Aldrich Co., Shanghai, CN) for 2 h or 6 h for transcription or protein level analysis.\nas §1, §2\nTotal proteins were extracted with RIPA lysis buffer. After determining the protein concentration by the BCA assay kit, an equal amount of protein was subjected to SDS-PAGE and electro-transferred to a PVDF membrane. The membrane was immune detected with specific antibodies overnight at 4 °C. Proteins were quantified by Image J software. The target antibodies against p65, phosphorylated p65, IκBα, p-IκBα, TLR4, NLRP3, caspase-1, IL-1β, and β-actin were purchased from Proteintech or Cell Signaling Technology."}, "[3]": {"assay": "In vivo PK study in SD rats", "settings": "plasma, rat", "experimental": "MR2938 was synthesized in-house following previously reported procedure (Lv et al. [2023]), and confirmed by NMR and HPLC chromatography (purity > 95%). To detect the pharmacokinetic characters of MR2938 in the plasma, the SD rats were orally and intravenous (i.v.) administered with MR2938 at a dose of 10 mg/kg and 3 mg/kg, respectively. The vehicle consisted of 10% DMSO, 30% saline, and 60% PEG400. Plasma samples were collected at 5 min, 15 min, 30 min and 1 h, 2 h, 4 h, 6 h, 8 h, 12 h, and 24 h after administration. After analyzing the concentration of MR2938 via LC–MS, the values of Cmax, Tmax, T1/2, Cl, AUClast, and AUCInf were calculated (Hu et al. [2018]). The bioavailability of MR2938 from the p.o. was calculated by comparing the area under the concentration–time curve (AUCInf) for the […] dose and that for the i.v. dose."}, "[4]": {"assay": "Brain permeability in mice after i.p. administration", "type": "in vivo, mouse", "settings": "n=3", "experimental": "Table S2. Concentration of MR2938 in brain after its i.p. administration (6.5 mg/kg)"}, "Caco-2 cells": {"system": "Caco-2 cells", "assay": "LPS-induced tight junction disruption in Caco-2 cells (immunofluorescence)", "type": "cell-based", "experimental": "Caco-2 cells were seeded and incubated in 24-well plates (1 × 10^5 cells/well) for 48 h and treated with 10 μmol/L of MR2938 for 2 h. Then 100 ng/mL of LPS was added for 24 h to induce tight function disruption.\nas §2"}, "AChE": {"system": "AChE", "design": "method as in Lv et al. 2023", "settings": "ref Lv et al. 2023; cited from earlier work"}, "NO production": {"system": "NO production", "design": "method as in Lv et al. 2023", "settings": "ref Lv et al. 2023; cited from earlier work"}, "[5]": {"system": "proinflammatory cytokines mRNA", "design": "method as in Lv et al. 2023", "settings": "2.5 μmol/L; ref Lv et al. 2023; cited from earlier work"}}}
{"smiles": "Nc1ccc(O)c(C(=O)O)c1", "note": "[5-ASA, 5-aminosalicylic acid, reference compound]", "values": [{"measurement": "body weight", "setting": "[1]; 3% DSS", "value": "marked improvement"}]}
{"smiles": "O=C(c1ccc(Nc2nccc(-c3cc4ccccc4s3)n2)cc1)N1CCC(N2CCCC2)CC1", "note": "[IKK16, reference compound]", "values": [{"measurement": "LPS-elevated expression level of NLRP3", "setting": "[2]; western blot, NF-κB pathway blocked", "value": "obviously decreased"}]}
{"smiles": "COc1cc(OC)c2c(=O)[nH]c(-c3ccc(N4CCN(C)CC4)cc3)nc2c1", "note": "[MR2938]", "values": [{"measurement": "AUC(0-inf)", "setting": "[3]; iv, 3 mg/kg i.v., mean n = 3", "value": 1070, "unit": "ng·h/mL"}, {"measurement": "AUC(0-t)", "setting": "[3]; iv, 3 mg/kg i.v., mean n = 3", "value": 1060, "unit": "ng·h/mL"}, {"measurement": "Cmax", "setting": "[3]; iv, 3 mg/kg i.v., mean n = 3", "value": 1030, "unit": "ng/mL"}, {"measurement": "half-life", "setting": "[3]; iv, 3 mg/kg i.v., mean n = 3", "value": 2.25, "unit": "h"}, {"measurement": "clearance", "setting": "[3]; iv, 3 mg/kg i.v., mean n = 3, read-out: Cl (plasma clearance)", "value": 47.2, "unit": "mL/min/kg"}, {"measurement": "bioavailability", "setting": "[3]; oral, 10 mg/kg p.o. vs 3 mg/kg i.v., from AUCInf, read-out: F (oral bioavailability)", "value": 59, "unit": "%"}, {"measurement": "AUC(0-inf)", "setting": "[3]; po, 10 mg/kg p.o., mean n = 3", "value": 2110, "unit": "ng·h/mL"}, {"measurement": "AUC(0-t)", "setting": "[3]; po, 10 mg/kg p.o., mean n = 3", "value": 2080, "unit": "ng·h/mL"}, {"measurement": "Cmax", "setting": "[3]; po, 10 mg/kg p.o., mean n = 3", "value": 592, "unit": "ng/mL"}, {"measurement": "Tmax", "setting": "[3]; po, 10 mg/kg p.o., mean n = 3", "value": 0.667, "unit": "h"}, {"measurement": "half-life", "setting": "[3]; po, 10 mg/kg p.o., mean n = 3", "value": 2.87, "unit": "h"}, {"measurement": "Amount in brain", "setting": "[4]; i.p. 6.5 mg/kg (145 μg)", "value": 236.7, "unit": "ng"}, {"measurement": "Concentration in brain", "setting": "[4]; i.p. 6.5 mg/kg", "value": 222.07, "unit": "ng/g"}, {"measurement": "Occludin and ZO-1 proteins in colon (immunofluorescence), comparison with 5-ASA", "setting": "[1]; 100 mg/kg", "value": "as effective as 5-ASA"}, {"measurement": "mRNA levels of Occludin, ZO-1 and claudin-1 in colon", "setting": "[1]; 100 mg/kg vs colitis group, no statistical difference", "value": "upregulated"}, {"measurement": "colon length (shortening)", "setting": "[1]; 3% DSS, 100 mg/kg oral, similar to control group, significantly longer than 5-ASA group", "value": "greatly relieved"}, {"measurement": "body weight", "setting": "[1]; 3% DSS", "value": "marked improvement"}, {"measurement": "inflammatory cell infiltration, mucosal damage and overall colonic damage score (HE histology)", "setting": "[1]; 3% DSS, oral administration", "value": "obvious attenuation"}, {"measurement": "concentration of MPO in colon", "setting": "[1]; DSS-induced", "value": "slight decrease"}, {"measurement": "concentration of MPO in serum", "setting": "[1]; DSS-induced", "value": "slight decrease"}, {"measurement": "colonic level of IL-1β", "setting": "[1]; ELISA, colon tissue", "value": "decreased"}, {"measurement": "colonic level of TNF-α", "setting": "[1]; ELISA, colon tissue", "value": "decreased"}, {"measurement": "IL-1β in mouse serum", "setting": "[1]; ELISA, 50 mg/kg and 100 mg/kg", "value": "significant decrease"}, {"measurement": "TNF-α in mouse serum", "setting": "[1]; ELISA, 50 mg/kg and 100 mg/kg", "value": "significant decrease"}, {"measurement": "serum IL-6 level", "setting": "[1]; ELISA, 50 mg/kg group compared with 100 mg/kg group", "value": "no statistical difference between the two groups"}, {"measurement": "gene transcription of IL-1β in colon", "setting": "[1]; RT-qPCR", "value": "noticeably inhibited"}, {"measurement": "gene transcription of TNF-α in colon", "setting": "[1]; RT-qPCR", "value": "noticeably inhibited"}, {"measurement": "transcription of IL-6 in colon", "setting": "[1]; RT-qPCR, 100 mg/kg, compared with 5-ASA", "value": "more favorable effects on the transcription of IL-6 than 5-ASA"}, {"measurement": "GPx in colon", "setting": "[1]; colitis group vs treatment group", "value": "no significant difference"}, {"measurement": "Occludin and ZO-1 proteins in colon (immunofluorescence)", "setting": "[1]; dose-dependent, 50 and 100 mg/kg", "value": "partially alleviate the depletion"}, {"measurement": "mucin-secreting goblet cells in colonic epithelia (Alcian blue staining)", "setting": "[1]; similar to control group", "value": "rescued the differentiation of mucin-producing goblet cells"}, {"measurement": "organ indexes of mice", "setting": "[1]; treatment group vs control groups", "value": "no obvious differences"}, {"measurement": "production of MDA in colon", "setting": "[1]; vs DSS group", "value": "significantly suppressed"}, {"measurement": "expression of Occludin and ZO-1", "setting": "Caco-2 cells; 10 μmol/L, LPS 100 ng/mL stimulated", "value": "able to rescue expression levels"}, {"measurement": "Occludin and ZO-1 protein levels", "setting": "Caco-2 cells; MR2938 alone, without LPS", "value": "little changes"}, {"measurement": "NF-κB fluorescence intensity / subcellular location", "setting": "[2]; 10 μM pre-treatment, LPS activation, immunofluorescence", "value": "dropped and was mostly accumulated in the cytoplasm"}, {"measurement": "total p65", "setting": "[2]; LPS stimulated, western blot", "value": "slightly downregulated"}, {"measurement": "phosphorylation of IκBα and p65", "setting": "[2]; LPS stimulated, western blot, dose-dependent", "value": "effectively inhibited"}, {"measurement": "expression of TLR4", "setting": "[2]; LPS stimulated, decrease did not correlate to concentration", "value": "reduced"}, {"measurement": "expressions of IL-1β, NLRP3 and caspase-1 (mRNA and protein)", "setting": "[2]; qPCR and western blot, vs LPS stimulated", "value": "significantly reduced"}, {"measurement": "IC50", "setting": "AChE", "value": 5.04, "unit": "µM"}, {"measurement": "IC50", "setting": "NO production", "value": 3.29, "unit": "µM"}, {"measurement": "mRNA level of proinflammatory cytokines", "setting": "[5]", "value": "significantly decreased"}]}
